Measured values: US20090221666A1, “STILBENE DERIVATIVES AND METHODS OF INHIBITING CANCER CELL GROWTH AND MICROBIAL GROWTH” (priority 2005, published 2009)
Converted amounts (≈) assume the structure as drawn. Where a name gives a salt, the structure may show the parent alone. Read-outs that look alike come from different tables or passages of the source.

Key:
[1] = system: P388 lymphocytic leukemia cell line; assay type: cell-based; settings: murine P388 lymphocytic leukemia cell line
Experimental: (§1) Cytotoxicity assays were performed by the sulforhodamine B method, in which inhibition of formation of cellular protein is measured (Ref. 42). The mitotic index of MCF-7 breast cancer cells was determined as described previously (Ref. 27), except that cells were incubated in the presence of drug for 16 h prior to addition of the DNA stain.

BXPC-3 = test: cells; assay type: cell-based, human; settings: for GI50: Homo sapiens, read-out: Pancreas BXPC-3 GI50
Experimental: as §1

SF-295 = test: cells; assay type: cell-based, human; settings: for GI50: Homo sapiens, read-out: CNS SF-295 GI50
Experimental: as §1

NCI-H460 = test: cells; assay type: cell-based, human; settings: for GI50: Homo sapiens, read-out: Lung-NSC NCI-H460 GI50
Experimental: as §1

DU145 = test: cells; assay type: cell-based, human; settings: for GI50: Homo sapiens, DU-145, read-out: Prostate DU145 GI50
Experimental: as §1

KM20L2 = test: cells; assay type: cell-based, human; settings: for GI50: Homo sapiens, KM-20L2, read-out: Colon KM20L2 GI50
Experimental: as §1

MCF-7 = test: cells; assay type: cell-based, human; settings: for GI50: Homo sapiens, MCF7, read-out: Breast MCF-7 GI50
Experimental: as §1

[2] = system: human cancer cell lines and murine P388; test: cells; assay type: cell-based; settings: for IC50: Mus musculus, P388, mean over the cell lines of Table 2, read-out: Mean
Experimental: as §1

[3] = Solubility in distilled water; assay type: physicochemical; settings: for Solubility / solubility: 1 mL distilled water at 25° C.
[4] = system: Streptococcus pneumoniae ATCC 6303; test: Broth microdilution assay, Streptococcus pneumoniae; assay type: cell-based; settings: ATCC6303
Excerpt: (§2) Compounds were screened in broth microdilution assays according to National Committee for Clinical Laboratory Standards (Ref. 43-44). Assays were repeated at least twice on separate days.

[5] = system: Enterococcus faecalis ATCC 29212; test: Broth microdilution assay, Enterococcus faecalis; assay type: cell-based
Excerpt: as §2

[6] = system: Neisseria gonorrhoeae ATCC 49226; test: Broth microdilution assay, Neisseria gonorrhoeae; assay type: cell-based
Excerpt: as §2

[7] = system: Cryptococcus neoformans ATCC 90112; test: Broth microdilution assay, Cryptococcus neoformans; assay type: cell-based; settings: ATCC90112
Excerpt: as §2

Bovine brain tubulin = test: Inhibition of tubulin assembly; assay type: biochemical; settings: 1.0 mg/mL (10 μM) tubulin; read-out: Inhibition of tubulin assembly IC50 (μM) ± SD
Experimental: (§3) Bovine brain tubulin was prepared and the tubulin assembly and colchicine binding assays were performed as described previously. In the assembly assay, reaction mixtures contained 1.0 mg/mL (10 μM) tubulin and varying concentrations of potential inhibitors. In the colchicine binding assay reaction mixtures contained 0.1 mg/mL (1.0 μM) tubulin, 5.0 μM [^3H]colchicine, and potential inhibitor as indicated. The vinblastine binding assay was performed as described previously for GTP binding by centrifugal gel filtration, except that a Beckman Allegra 6KR centrifuge equipped with a GH-3.8A swinging bucket rotor was used and the syringe-columns were centrifuged at 2,000 rpm (Ref. 38-41). Reaction mixtures contained 0.5 mg/mL (5.0 μM) tubulin, 5 μM [^3H]vinblastine, potential inhibitor as indicated, 0.5 mM MgCl2, 0.1 M 4-morpholineethanesulfonate (1.0 M stock solution adjusted to pH 6.9 with NaOH, and 4% (v/v) dimethyl sulfoxide. Incubation (30 min) and centrifugal gel filtration were performed at room temperature (20-22° C.).

[8] = system: Bovine brain tubulin (colchicine site); test: Inhibition of [3H]colchicine binding to tubulin; settings: 1.0 μM tubulin, 5.0 μM [3H]colchicine
Experimental: as §3

[9] = system: Bovine brain tubulin (vinca domain); test: Inhibition of [3H]vinblastine binding to tubulin; settings: 5.0 μM tubulin, 5 μM [3H]vinblastine
Experimental: as §3

[10] = system: MCF-7 breast cancer cells; test: Mitotic index of MCF-7 cells; assay type: cell-based, human; settings: 16 h at 10 times the IC50 concentration; without drug 2.9%
Experimental: as §1

[11] = system: MCF-7 breast cancer cells; test: Inhibition of growth of MCF-7 breast cancer cells (sulforhodamine B); assay type: cell-based, human
Experimental: as §1

SMILES | Leukemia P388 ED50 [1] [µg/mL] | GI50 (BXPC-3) [µg/mL] | GI50 (SF-295) [µg/mL] | GI50 (NCI-H460) [µg/mL] | GI50 (DU145) [µg/mL] | GI50 (KM20L2) [µg/mL] | GI50 (MCF-7) [µg/mL] | IC50 [2] [µg/mL] | water solubility (in words) [3] | inhibition of mini-panel of human cancer cell lines (in words) [2] | also measured
COc1ccc(/C=C\c2cc(OC)c3c(c2)OCO3)cc1NC(=O)[C@@H](N)CC(=O)[O-].[Na+] [Compound 11, Sodium 3,4-methylenedioxy-5,4′-dimethoxy-3′-(N^α-L-Asp)-amido-Z-stilbene] | 0.361 | 0.38 | 0.25 | 0.3 | 0.33 | 0.19 | 0.51 | 0.33 | only sparing water solubility |  | melting point: 168 to 170 °C; Solubility [3]: <100 µg/mL; solubility [3]: < 100 µg/mL
COc1ccc(/C=C\c2cc(OC)c3c(c2)OCO3)cc1NC(=O)[C@@H](N)Cc1ccc(O)cc1.Cl [Compound 9, 3,4-Methylenedioxy-5,4′-dimethoxy-3′-(N^α-L-Tyr)-amido-Z-stilbene hydrochloride] | 0.0329 | 0.064 | 0.064 | 0.096 | 0.08 | 0.034 | 0.041 | 0.059 | only sparing water solubility | strongly inhibiting | melting point: 169 to 170.5 °C; solubility [3]: < 100 µg/mL; Solubility ([3]; hydrochloride): <100 µg/mL
COc1ccc(/C=C\c2cc(OC)c3c(c2)OCO3)cc1NC(=O)[C@H](C)[C@@H](OC)[C@@H]1CCCN1 [Compound 14, 3,4-Methylenedioxy-5,4′-dimethoxy-3′-(N^α-L-Dap)-amido-Z-stilbene TFA salt] | 0.0263 | 0.23 | 0.062 | 0.083 | 0.07 | 0.26 | 0.054 | 0.11 |  | strongly inhibiting | MIC [4]: 8 to 16 µg/mL; MIC ([5]; ATCC29212, read-out: MIC): 32 to 64 µg/mL; MIC ([6]; ATCC49226, read-out: MIC): 16 µg/mL; MIC [7]: 64 µg/mL
COc1ccc(C=Cc2cc(OC)c(OC)c(OC)c2)cc1O [Compound 2g, combretastatin A-4] |  |  |  |  |  |  |  |  |  |  | IC50 (Bovine brain tubulin): […]; Inhibition of colchicine binding % Inhibition ± SD ([8]; 2 μM inhibitor): 98 ± 0.4%; Inhibition of vinblastine binding % Inhibition ± SD ([9]; 10 μM inhibitor): 0%; Inhibition of vinblastine binding % Inhibition ± SD ([9]; 80 μM inhibitor): 0%
COc1ccc(/C=C\c2cc(OC)c3c(c2)OCO3)cc1NC(=O)[C@H](C)[C@@H](OC)[C@@H]1CCCN1C(=O)OC(C)(C)C [Compound 13, 3,4-Methylenedioxy-5,4′-dimethoxy-3′-(N^α-Boc-L-Dap)-amido-Z-stilbene] | 0.225 | 0.58 (≈ 1.02 µM) | 0.75 (≈ 1.32 µM) | 0.52 (≈ 0.914 µM) | 0.38 (≈ 0.668 µM) | 1.9 (≈ 3.34 µM) | 0.53 (≈ 0.932 µM) | 0.7 (≈ 1.23 µM) |  |  | MIC [7]: 64 µg/mL (≈ 113 µM)
COc1ccc(/C=C\c2cc(OC)c3c(c2)OCO3)cc1NC(=O)[C@@H](N)Cc1ccc(OP(=O)(O)O)cc1 [Compound 3a, 3,4-Methylenedioxy-5,4′-dimethoxy-3′-(O-phosphoryl-N^α-L-Tyr)-amido-Z-stilbene] | >10 |  |  |  |  |  |  |  | only sparing water solubility |  | MIC [5]: 64 µg/mL (≈ 118 µM); Pancreas BXPC-3 GI50 (BXPC-3): >1 µg/mL; CNS SF-295 GI50 (SF-295): >1 µg/mL; Lung-NSC NCI-H460 GI50 (NCI-H460): >1 µg/mL; Prostate DU145 GI50 (DU145): >1 µg/mL; Colon KM20L2 GI50 (KM20L2): >1 µg/mL; Breast MCF-7 GI50 (MCF-7): >1 µg/mL; MIC [6]: 0.125 µg/mL (≈ 0.23 µM); Solubility [3]: <100 µg/mL
CC[C@H](C)[C@@H]([C@@H](CC(=O)N1CCC[C@H]1[C@H](OC)[C@@H](C)C(=O)Nc1cc(/C=C\c2cc(OC)c3c(c2)OCO3)ccc1OC)OC)N(C)C(=O)[C@@H](NC(=O)[C@H](C(C)C)N(C)C)C(C)C [Compound 16, 3,4-Methylenedioxy-5,4′-dimethoxy-3′-(Dov-Val-Dil-Dap)-amido-Z-stilbene] | <0.01 |  |  |  |  |  |  |  |  | strongly inhibiting | IC50 (Bovine brain tubulin): 1.3 ± 0.04 µM; Mitotic index of MCF-7 cells % Mitoses [10]: 57%; Pancreas BXPC-3 GI50 (BXPC-3): 0.048 µg/mL; CNS SF-295 GI50 (SF-295): 0.025 µg/mL; Lung-NSC NCI-H460 GI50 (NCI-H460): 0.033 µg/mL; Prostate DU145 GI50 (DU145): 0.032 µg/mL; Colon KM20L2 GI50 (KM20L2): 0.020 µg/mL; Breast MCF-7 GI50 (MCF-7): 0.0031 µg/mL; IC50 ([11]; MCF-7, read-out: Inhibition of growth of MCF-7 breast cancer cells IC50 (nM) ± SD): 17 nM; times as active as hydrochloride 1b, MCF-7 cells ([11]; relative to 1b): ~4 times; activity as fraction of D-10 (4a), MCF-7 cells ([11]; relative to 4a): 1/200; Inhibition of colchicine binding % Inhibition ± SD ([8]; 50 μM inhibitor): 30 ± 2%; Inhibition of vinblastine binding % Inhibition ± SD ([9]; 10 μM inhibitor): 48 ± 3%; Inhibition of vinblastine binding % Inhibition ± SD ([9]; 80 μM inhibitor): 87 ± 2%
